Measurements taken from the supplement of paper PMC10627819.

Legend:
S. pneumoniae D39V [1] = assay: Bliss interaction score (quartile over a dose matrix) (fitness difference); higher = more antagonism (negative = synergy)
Procedure, shortened: (§1)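 Fitness here means normalised growth, inferred for single drugs from the combination data. Growth was OD595 at entry into stationary phase, divided by the plate's robust no-drug mean and capped at 1. The Bliss score is observed minus expected fitness, with the expectation being the product, and its quartiles span technical, biological and donor/recipient replicates.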

S. aureus DSM 20231 [2] = assay: as above
Procedure, shortened: as §1

B. subtilis 168 [3] = assay: as above
Procedure, shortened: as §1

S. aureus Newman = assay: as above
Procedure, shortened: as §1

S. pneumoniae D39V [4] = assay: fitness (endpoint OD595 vs no drug) (fraction); higher = more growth
Procedure, shortened: (§2)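 At 37 °C, bacteria in TSB, LB Lennox or CY were grown in 384-well plates from a starting OD595 of 0.01. OD595 was measured every 30 min for 14 h, with the first reading used as background. Fitness is the optical density at the switch to stationary phase as a fraction of the robust mean of no-drug control wells, capped at 1.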

S. aureus DSM 20231 [5] = assay: as above
Procedure, shortened: as §2

B. subtilis 168 [6] = assay: as above
Procedure, shortened: as §2
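For Bliss interaction score (quartile over a dose matrix) in this document: first quartile when negative (synergy) and third quartile when positive (antagonism).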
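For fitness (endpoint OD595 vs no drug) in this document: OD595 on entry to stationary phase over no-drug wells; at most 1.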

CO/N=C(\C(=O)N[C@@H]1C(=O)N2C(C(=O)O)=C(COC(C)=O)CS[C@H]12)c1csc(N)n1 [Cefotaxime] + CCC[C@@H]1C[C@@H](C(=O)N[C@@H]([C@H]2O[C@H](SC)[C@H](O)[C@@H](O)[C@H]2O)[C@@H](C)O)N(C)C1 [Lincomycin]
Conditions | Bliss interaction score
B. subtilis 168 [3] | 0.0413
S. aureus DSM 20231 [2] | 0.0625
S. aureus Newman | -0.173
S. pneumoniae D39V [1] | 0.105

fitness
Conditions | partner 0.1 µg/mL | partner 0.2 µg/mL | partner 0.215 µg/mL | partner 0.4 µg/mL | partner 0.43 µg/mL | partner 0.8 µg/mL | partner 0.86 µg/mL
B. subtilis 168 [6], first compound 0.5 µg/mL | 0.257 | 0.241 | – | 0.201 | – | – | –
B. subtilis 168 [6], first compound 1 µg/mL | 0.144 | 0.126 | – | 0.0991 | – | – | –
B. subtilis 168 [6], first compound 2 µg/mL | 0.0702 | 0.0617 | – | 0.0675 | – | – | –
S. aureus DSM 20231 [5], first compound 0.039 µg/mL | 0.748 | 0.799 | – | – | – | – | –
S. aureus DSM 20231 [5], first compound 0.078 µg/mL | 0.721 | 0.728 | – | – | – | – | –
S. aureus DSM 20231 [5], first compound 0.156 µg/mL | 0.628 | 0.659 | – | 0.353 | – | – | –
S. aureus DSM 20231 [5], first compound 0.312 µg/mL | 0.582 | 0.569 | – | 0.188 | – | – | –
S. pneumoniae D39V [4], first compound 0.0018 µg/mL | – | 0.667 | 0.903 | 0.469 | 0.759 | 0.185 | 0.56
S. pneumoniae D39V [4], first compound 0.0035 µg/mL | – | 0.626 | 0.866 | 0.455 | 0.748 | 0.142 | 0.489
S. pneumoniae D39V [4], first compound 0.007 µg/mL | – | 0.566 | 0.868 | 0.388 | 0.791 | 0.0851 | 0.469

fitness, B. subtilis 168 [6], one replicate
Conditions | first compound 0.00775 µg/mL | first compound 0.0155 µg/mL | first compound 0.031 µg/mL | first compound 0.0625 µg/mL | first compound 0.125 µg/mL | first compound 0.25 µg/mL
partner 0.1 µg/mL | – | – | – | 0.506 | 0.44 | 0.334
partner 0.2 µg/mL | – | – | – | 0.548 | 0.452 | 0.371
partner 0.4 µg/mL | 0.767 | 0.667 | 0.452 | 0.475 | 0.444 | 0.319
partner 0.8 µg/mL | 0.744 | 0.619 | 0.415 | – | – | –
partner 1.6 µg/mL | 0.683 | 0.575 | 0.388 | – | – | –

CO/N=C(\C(=O)N[C@@H]1C(=O)N2C(C(=O)O)=C(COC(C)=O)CS[C@H]12)c1csc(N)n1 [Cefotaxime] + COc1cc(Cc2cnc(N)nc2N)cc(OC)c1OC [Trimethoprim]
Conditions | Bliss interaction score
B. subtilis 168 [3] | 0.0814
S. aureus DSM 20231 [2] | 0.0326
S. aureus Newman | -0.0597
S. pneumoniae D39V [1] | 0.224

one replicate
Conditions | fitness
B. subtilis 168 [6], first compound 0.00775 µg/mL, partner 0.125 µg/mL | 0.309
B. subtilis 168 [6], first compound 0.00775 µg/mL, partner 0.25 µg/mL | 0.288
B. subtilis 168 [6], first compound 0.00775 µg/mL, partner 0.5 µg/mL | 0.269
B. subtilis 168 [6], first compound 0.0155 µg/mL, partner 0.125 µg/mL | 0.262
B. subtilis 168 [6], first compound 0.0155 µg/mL, partner 0.25 µg/mL | 0.181
B. subtilis 168 [6], first compound 0.0155 µg/mL, partner 0.5 µg/mL | 0.0769
B. subtilis 168 [6], first compound 0.031 µg/mL, partner 0.125 µg/mL | 0.149
B. subtilis 168 [6], first compound 0.031 µg/mL, partner 0.25 µg/mL | 0.0914
B. subtilis 168 [6], first compound 0.031 µg/mL, partner 0.5 µg/mL | 0.0904
B. subtilis 168 [6], first compound 0.0625 µg/mL, partner 0.1 µg/mL | 0.47
B. subtilis 168 [6], first compound 0.0625 µg/mL, partner 0.125 µg/mL | 0.432
B. subtilis 168 [6], first compound 0.0625 µg/mL, partner 0.2 µg/mL | 0.454
B. subtilis 168 [6], first compound 0.0625 µg/mL, partner 0.4 µg/mL | 0.402
B. subtilis 168 [6], first compound 0.125 µg/mL, partner 0.1 µg/mL | 0.364
B. subtilis 168 [6], first compound 0.125 µg/mL, partner 0.125 µg/mL | 0.345
B. subtilis 168 [6], first compound 0.125 µg/mL, partner 0.2 µg/mL | 0.336
B. subtilis 168 [6], first compound 0.125 µg/mL, partner 0.4 µg/mL | 0.296
B. subtilis 168 [6], first compound 0.25 µg/mL, partner 0.1 µg/mL | 0.109
B. subtilis 168 [6], first compound 0.25 µg/mL, partner 0.125 µg/mL | 0.274
B. subtilis 168 [6], first compound 0.25 µg/mL, partner 0.2 µg/mL | 0.223
B. subtilis 168 [6], first compound 0.25 µg/mL, partner 0.4 µg/mL | 0.127
B. subtilis 168 [6], first compound 0.5 µg/mL, partner 1 µg/mL | 0.104
B. subtilis 168 [6], first compound 0.5 µg/mL, partner 2 µg/mL | 0.129
B. subtilis 168 [6], first compound 1 µg/mL, partner 1 µg/mL | 0.0524
B. subtilis 168 [6], first compound 1 µg/mL, partner 2 µg/mL | 0.0575
B. subtilis 168 [6], first compound 2 µg/mL, partner 1 µg/mL | 0.0669
B. subtilis 168 [6], first compound 2 µg/mL, partner 2 µg/mL | 0.0449
S. aureus DSM 20231 [5], first compound 0.039 µg/mL, partner 0.125 µg/mL | 0.663
S. aureus DSM 20231 [5], first compound 0.312 µg/mL, partner 0.125 µg/mL | 0.498
S. aureus DSM 20231 [5], first compound 0.312 µg/mL, partner 0.25 µg/mL | 0.384
S. aureus DSM 20231 [5], first compound 0.312 µg/mL, partner 0.5 µg/mL | 0.0438

fitness
Conditions | partner 0.125 µg/mL | partner 0.25 µg/mL | partner 0.5 µg/mL | partner 1 µg/mL
B. subtilis 168 [6], first compound 0.0625 µg/mL | – | 0.386 | 0.363 | –
B. subtilis 168 [6], first compound 0.125 µg/mL | – | 0.285 | 0.27 | –
B. subtilis 168 [6], first compound 0.25 µg/mL | – | 0.217 | 0.19 | –
B. subtilis 168 [6], first compound 0.5 µg/mL | – | – | 0.125 | –
B. subtilis 168 [6], first compound 1 µg/mL | – | – | 0.108 | –
B. subtilis 168 [6], first compound 2 µg/mL | – | – | 0.0672 | –
S. aureus DSM 20231 [5], first compound 0.039 µg/mL | – | 0.558 | 0.14 | 0.047
S. aureus DSM 20231 [5], first compound 0.078 µg/mL | 0.584 | 0.536 | 0.207 | 0.0436
S. aureus DSM 20231 [5], first compound 0.156 µg/mL | 0.605 | 0.57 | 0.299 | 0.0551
